{
  "source": "patent US7947262B2",
  "about": "“Use of fullerenes for the treatment of mast cell and basophil-mediated disease” (Virginia Commonwealth University, priority 2006, dated 2011)",
  "key": {"skin MC [1]": {"tested_on": "skin MC", "test": "Cellular localization by immunohistochemistry with anti-C60 fullerene Ab", "type": "cell-based, human", "details": "4 hours incubation; Polyhydroxy C60 10 ng/ml, N-ethyl-polyamino C60 0.1 μg/ml; FIG. 4", "protocol": "Skin MC (a-d) or PBB (e, f) were incubated with Polyhydroxy C60 (10 ng/ml; a, b, c, f) or N-ethyl-polyamino C60 (0.1 μg/ml; d, f) for 4 hours, washed and cytocentrifuged onto slides. The cytocentrifuge preparations were incubated with anti-C60 fullerene Abs (c, d, e, f) or with an isotype-matched control (a, b) overnight. The cytospins were washed and incubated with a 1:50 dilution of peroxidase-conjugated, anti-mouse Abs and developed with AEC as described. Photographs a and b are the same field taken under phase-contrast (a) or light (b) at a magification of 400×. Pictures c-f were taken under light at a magification of 1000×.\nTo access the cellular localization if the fullerenes within human MC, these cells were incubated with the water soluble fullerenes and immunohistochemistry was assessed using a fullerene-specific antibody Ab (59;60)."}, "skin MC [2]": {"tested_on": "skin MC", "procedure": "(§3) A bar graph illustrating the effects of fullerenes on skin MC and PBB viability Cells were cultured with (poly; white bars, N-ethyl; striped bars) or without (black bars) fullerenes (10 mg/ml) for the indicated times. Cells were washed and viability assessed by trypan blue exclusion. Results are representative of 3 experiments from different donors.\n(§4) The effects of water soluble fullerene derivatives (Poly; polyhydroxy C60 and N-ethyl; N-ethyl-polyamino C60) on cell growth and viability were tested. Cells were incubated for up to 72 hours and total cell numbers were assessed along with trypan blue exclusion."}, "PBB [3]": {"tested_on": "PBB", "test": "Cellular ROS levels after antigen challenge (DCF dye, FACS)", "type": "cell-based, human", "details": "preincubation, then NIP-BSA 100 ng/ml for 30 min; FIG. 5", "protocol": "(§1) Skin MC (grey) or PBB (white) were sensitized overnight with anti-NIP-IgE (1 μg/ml). Cells were activated for 30 min with NIP-BSA (100 ng/ml) with or without preincubation with the indicated concentrations of fullerenes or N-acetyl-L-cysteine (NAC; 10 μmol). Cellular ROS levels were detected by incubating the cells in the ROS indicating dye 5-(and-6)-carboxy-2′,7′-dichlorodihydrofluorescein diacetate (DCF) followed by FACS analysis. The results are representative of 3 separate MC or PBB cultures. The * or # indicates statistically significant changes in ROS levels for MC and PBB, respectively (p<0.05). A, polyhydroxy C60 fullerenes; B, N-ethyl-polyamine C60 fullerenes.\n(§2) To investigate the mechanism by which these fullerenes inhibit allergic mediator release from skin MC and PBB, the effect these compounds have on ROS levels within the cell after antigen stimulation was tested."}, "skin MC [4]": {"tested_on": "skin MC", "test": "Cellular ROS levels after antigen challenge (DCF dye, FACS)", "type": "cell-based, human", "details": "preincubation, then NIP-BSA 100 ng/ml for 30 min; FIG. 5", "protocol": "as §1, §2"}, "IgE-DNP-sensitized mice": {"tested_on": "IgE-DNP-sensitized mice", "test": "IgE-induced systemic anaphylaxis in vivo", "details": "intravenously (50 ng/ml) overnight before DNP-BSA challenge; FIG. 6", "protocol": "FIG. 6. […] Mice (3-5 per group; n=2 separate experiments) were sensitized with or without (Δ) DNP-IgE overnight. The mice were then given vehicle alone (▪) or fullerenes (▾=Poly C60; ●=N-ethyl C60) intravenously (50 ng/ml) overnight. The next morning the animals were challenged with DNP-BSA (100 μg/ml) and the core body temperature measured for up to 30 minutes. Serum histamine levels were measured by ELISA. A, data represented with line graphs; B, data represented with bar graphs.\nSystemic anaphylaxis is predominately driven by the activation of MC and PBB through IgE-FceRI crosslinking (45;61). […] Thus, we hypothesized that they could inhibit MC and PBB-induced anaphylaxis in vivo using IgE-sensitized mice. […] In addition, there was a significant reduction in serum histamine levels with the fullerene preincubation.\nTo test inhibition of mouse anaphylaxis, mice are injected intraperitoneally (IP) with 50 μg of DNP-specific IgE. After approximately 4 to 6 hours the mice (triplicate) are injected with or without different concentrations of fullerenes. The next day cells are injected IP with DNP-HSA (100 μg, Sigma-Aldrich). […] After 30 minutes, mice are sacrificed, and cardiac puncture is used to obtain plasma, from which histamine and other mediators are measured by ELISA. […]"}, "PBB [5]": {"tested_on": "PBB", "procedure": "as §3, §4"}},
  "data": [
    {"substance": "polyhydroxy C60", "values": [
      {"measurement": "cellular localization of fullerenes", "setting": "skin MC [1]", "value": "localize within the cytoplasm of MC"},
      {"measurement": "total cell numbers", "setting": "skin MC [2]", "value": "None of the fullerenes demonstrated a significant affect"},
      {"measurement": "cellular ROS levels", "setting": "PBB [3]", "value": "inhibit ROS production"},
      {"measurement": "cellular ROS levels", "setting": "skin MC [4]", "value": "inhibit ROS production"},
      {"measurement": "IgE-induced anaphylaxis", "setting": "IgE-DNP-sensitized mice", "value": "inhibit IgE-induced anaphylaxis"},
      {"measurement": "total cell numbers", "setting": "PBB [5]", "value": "None of the fullerenes demonstrated a significant affect"}
    ]},
    {"substance": "N-ethyl-polyamino C60", "values": [
      {"measurement": "cellular localization of fullerenes", "setting": "skin MC [1]", "value": "localize within the cytoplasm of MC"},
      {"measurement": "total cell numbers", "setting": "skin MC [2]", "value": "None of the fullerenes demonstrated a significant affect"},
      {"measurement": "cellular ROS levels", "setting": "PBB [3]", "value": "inhibit ROS production"},
      {"measurement": "cellular ROS levels", "setting": "skin MC [4]", "value": "inhibit ROS production"},
      {"measurement": "IgE-induced anaphylaxis", "setting": "IgE-DNP-sensitized mice", "value": "inhibit IgE-induced anaphylaxis"},
      {"measurement": "total cell numbers", "setting": "PBB [5]", "value": "None of the fullerenes demonstrated a significant affect"}
    ]}
  ]
}
